From patent US9266876B2 (Actelion Pharmaceuticals Ltd., priority 2012, dated 2016) come the findings set out here.

One test deals with CXCR3 (Homo sapiens (Human), UniProt P49682). The test can be described thus: Receptor internalization assay. The settings on record: human whole blood; final CXCL10 concentration 9 nM; 30 min 37° C.; CXCR3 cell surface expression on CD3 positive cells, flow cytometer; read-out: Internalization IC50. The class given is cell-based. In outline:
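In human whole blood, compounds were incubated with CXCL10 (9 nM final) for 30 min at 37 °C to drive receptor internalization, then stained with anti-CXCR3/CD3 antibodies and lysed of red cells. Flow cytometry measured mean surface CXCR3 fluorescence on CD3+ cells, and IC50 came from single-site dose-response fits.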
Background: A flow cytometer gives signals particle by particle.

The target in a further test is human CXCR3A (Homo sapiens (Human), UniProt P49682). Nature of the test: FLIPR assay. The settings on record: CHO-K1 cells expressing the human CXCR3A coupled to Galpha(16); CXCL10 agonist 20 nM; Fluo-4-AM fluorescence; mean values if determined several times. The class given is cell-based. In outline: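 CHO-K1 cells expressing CXCR3A coupled to Gα16 were loaded with Fluo-4-AM for 1 h in Hepes-buffered HBSS, pH 7.4, with 5 mM probenecid. Compound dilutions were added on the FLIPR, followed by CXCL10 (added as a 20 nM solution). Baseline-subtracted peak fluorescence was fitted to a single-site curve for IC50.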
Sequence of human CXCR3A (P49682 whole entry): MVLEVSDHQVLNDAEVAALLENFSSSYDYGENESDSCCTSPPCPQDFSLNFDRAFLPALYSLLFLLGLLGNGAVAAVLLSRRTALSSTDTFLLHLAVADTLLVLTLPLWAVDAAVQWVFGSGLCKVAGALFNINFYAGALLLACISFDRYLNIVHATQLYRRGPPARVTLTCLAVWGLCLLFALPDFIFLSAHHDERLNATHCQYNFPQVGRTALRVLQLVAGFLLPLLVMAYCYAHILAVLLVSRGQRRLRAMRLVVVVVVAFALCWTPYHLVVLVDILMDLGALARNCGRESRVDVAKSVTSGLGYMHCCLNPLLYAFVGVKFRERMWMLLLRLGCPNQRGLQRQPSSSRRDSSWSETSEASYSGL

Sequence of CXCR3 (P49682 whole entry): as above

What is called IC50 is the midpoint of a concentration-inhibition curve. As to `C[C@@H]1CN(c2sc(C(F)(F)F)nc2-c2nc3ccccc3[nH]2)CCN1C(=O)Cn1ccc(C(F)(F)F)n1` [Example 193, 1-{(R)-4-[4-(1H-Benzoimidazol-2-yl)-2-trifluoromethyl-thiazol-5-yl]-2-methyl-piperazin-1-yl}-2-(3-trifluoromethyl-pyrazol-1-yl)-ethanone], the results for the 50% inhibitory concentration (IC50) at CXCR3 and at human CXCR3A were 0.21 µM and 0.001 µM, respectively.

`C[C@@H]1CN(c2sc(C(F)(F)F)nc2-c2nc3ccccc3[nH]2)CCN1C(=O)Cn1cncn1` [Example 194, 1-{(R)-4-[4-(1H-Benzoimidazol-2-yl)-2-trifluoromethyl-thiazol-5-yl]-2-methyl-piperazin-1-yl}-2-[1,2,4]triazol-1-yl-ethanone]: the IC50 stood at 1.41 µM on CXCR3 and 0.008 µM at human CXCR3A.

For the molecule `Cc1nnc(CC(=O)N2CCN(c3sc(C(F)(F)F)nc3-c3nc4ccccc4[nH]3)C[C@H]2C)o1` [Example 195, 1-{(R)-4-[4-(1H-Benzoimidazol-2-yl)-2-trifluoromethyl-thiazol-5-yl]-2-methyl-piperazin-1-yl}-2-(5-methyl-[1,3,4]oxadiazol-2-yl)-ethanone], the IC50 at CXCR3 is 2.71 µM; on human CXCR3A, 0.008 µM.

In the case of `C[C@@H]1CN(c2sc(C(F)(F)F)nc2-c2nc3ccccc3[nH]2)CCN1C(=O)Cc1nnc(-c2ccccc2)o1` [Example 196, 1-{(R)-4-[4-(1H-Benzoimidazol-2-yl)-2-trifluoromethyl-thiazol-5-yl]-2-methyl-piperazin-1-yl}-2-(5-phenyl-[1,3,4]oxadiazol-2-yl)-ethanone], the values for the IC50 at CXCR3 and on human CXCR3A were 6.56 µM and 0.006 µM, respectively.

For the molecule `C[C@@H]1CN(c2sc(C(F)(F)F)nc2-c2nc3ccccc3[nH]2)CCN1C(=O)Cn1nccn1` [Example 197, 1-{(R)-4-[4-(1H-Benzoimidazol-2-yl)-2-trifluoromethyl-thiazol-5-yl]-2-methyl-piperazin-1-yl}-2-[1,2,3]triazol-2-yl-ethanone], the values for the concentration for half-maximal inhibition (IC50) at CXCR3 and on human CXCR3A were 5.31 µM and 0.008 µM, respectively.

Consider `COC(=O)c1ccn(CC(=O)N2CCN(c3sc(C(F)(F)F)nc3-c3nc4ccccc4[nH]3)C[C@H]2C)n1` [Example 198, 1-(2-{(R)-4-[4-(1H-Benzoimidazol-2-yl)-2-trifluoromethyl-thiazol-5-yl]-2-methyl-piperazin-1-yl}-2-oxo-ethyl)-1H-pyrazole-3-carboxylic acid methyl ester], for which the figures for the IC50 at CXCR3 and at human CXCR3A were 6.9 µM and 0.002 µM, respectively.

Turning to `Cc1ccc(CC(=O)N2CCN(c3sc(C(F)(F)F)nc3-c3nc4ccccc4[nH]3)C[C@H]2C)cn1` [Example 199, 1-{(R)-4-[4-(1H-Benzoimidazol-2-yl)-2-trifluoromethyl-thiazol-5-yl]-2-methyl-piperazin-1-yl}-2-(6-methyl-pyridin-3-yl)-ethanone], the IC50 amounted to 0.658 µM on CXCR3 and 0.0004 µM at human CXCR3A.

As to `C[C@@H]1CN(c2sc(C(F)(F)F)nc2-c2nc3ccccc3[nH]2)CCN1C(=O)Cc1ccccc1-n1nccn1` [Example 200, 1-{(R)-4-[4-(1H-Benzoimidazol-2-yl)-2-trifluoromethyl-thiazol-5-yl]-2-methyl-piperazin-1-yl}-2-(2-[1,2,3]triazol-2-yl-phenyl)-ethanone], the half-maximal inhibitory concentration (IC50) at CXCR3 turned out to be 0.627 µM; at human CXCR3A, 0.028 µM.

Regarding `C[C@@H]1CN(c2sc(C(F)(F)F)nc2-c2nc3ccccc3[nH]2)CCN1C(=O)Cc1cccc(-n2nccn2)c1` [Example 201, 1-{(R)-4-[4-(1H-Benzoimidazol-2-yl)-2-trifluoromethyl-thiazol-5-yl]-2-methyl-piperazin-1-yl}-2-(3-[1,2,3]triazol-2-yl-phenyl)-ethanone], the IC50 at CXCR3 was 2.86 µM; on human CXCR3A, 0.002 µM.

For `C[C@@H]1CN(c2sc(C(F)(F)F)nc2-c2nc3ccccc3[nH]2)CCN1C(=O)Cn1cc2cccnc2n1` [Example 202, 1-{(R)-4-[4-(1H-Benzoimidazol-2-yl)-2-trifluoromethyl-thiazol-5-yl]-2-methyl-piperazin-1-yl}-2-pyrazolo[3,4-b]pyridin-2-yl-ethanone], the IC50 on CXCR3 was determined as 0.044 µM; on human CXCR3A, 0.001 µM.

For `C[C@@H]1CN(c2sc(C(F)(F)F)nc2-c2nc3ccccc3[nH]2)CCN1C(=O)Cc1ccccc1-n1cccn1` [Example 203, 1-{(R)-4-[4-(1H-Benzoimidazol-2-yl)-2-trifluoromethyl-thiazol-5-yl]-2-methyl-piperazin-1-yl}-2-(2-pyrazol-1-yl-phenyl)-ethanone], the results for the IC50 on CXCR3 and at human CXCR3A were 2.1 µM and 0.005 µM, respectively.

As for `C[C@@H]1CN(c2sc(C(F)(F)F)nc2-c2nc3ccccc3[nH]2)CCN1C(=O)Cn1nccc1-c1ccccc1` [Example 204, 1-{(R)-4-[4-(1H-Benzoimidazol-2-yl)-2-trifluoromethyl-thiazol-5-yl]-2-methyl-piperazin-1-yl}-2-(5-phenyl-pyrazol-1-yl)-ethanone], the IC50 at CXCR3 amounted to 4.18 µM; on human CXCR3A, 0.006 µM.

`C[C@@H]1CN(c2sc(C(F)(F)F)nc2-c2nc3ccccc3[nH]2)CCN1C(=O)CN1C(=O)C(F)(F)c2ccccc21` [Example 205, 1-(2-{(R)-4-[4-(1H-Benzoimidazol-2-yl)-2-trifluoromethyl-thiazol-5-yl]-2-methyl-piperazin-1-yl}-2-oxo-ethyl)-3,3-difluoro-1,3-dihydro-indol-2-one]: the IC50 stood at 0.111 µM at CXCR3 and 0.002 µM on human CXCR3A.

For the molecule `C[C@@H]1CN(c2sc(C(F)(F)F)nc2-c2nc3ccccc3[nH]2)CCN1C(=O)Cn1cnc2cnccc21` [Example 206, 1-{(R)-4-[4-(1H-Benzoimidazol-2-yl)-2-trifluoromethyl-thiazol-5-yl]-2-methyl-piperazin-1-yl}-2-imidazo[4,5-c]pyridin-1-yl-ethanone], the IC50 stood at 0.26 µM at CXCR3 and 0.002 µM on human CXCR3A.

With `C[C@@H]1CN(c2sc(C(F)(F)F)nc2-c2nc3ccccc3[nH]2)CCN1C(=O)Cn1cnc(Br)n1` [Example 207, 1-{(R)-4-[4-(1H-Benzoimidazol-2-yl)-2-trifluoromethyl-thiazol-5-yl]-2-methyl-piperazin-1-yl}-2-(3-bromo-[1,2,4]triazol-1-yl)-ethanone], the figures for the IC50 on CXCR3 and at human CXCR3A were 0.332 µM and 0.001 µM, respectively.

Consider `C[C@@H]1CN(c2sc(C(F)(F)F)nc2-c2nc3ccccc3[nH]2)CCN1C(=O)Cc1ccccc1N1CCN(C)CC1` [Example 208, 1-{(R)-4-[4-(1H-Benzoimidazol-2-yl)-2-trifluoromethyl-thiazol-5-yl]-2-methyl-piperazin-1-yl}-2-[2-(4-methyl-piperazin-1-yl)-phenyl]-ethanone], for which the IC50 at CXCR3 is 0.31 µM; on human CXCR3A it was 0.001 µM.

Turning to `C[C@@H]1CN(c2sc(C(F)(F)F)nc2-c2nc3ccccc3[nH]2)CCN1C(=O)Cn1cnc2c1CCN(C)C2` [Example 209, 1-{(R)-4-[4-(1H-Benzoimidazol-2-yl)-2-trifluoromethyl-thiazol-5-yl]-2-methyl-piperazin-1-yl}-2-(5-methyl-4,5,6,7-tetrahydro-imidazo[4,5-c]pyridin-1-yl)-ethanone], the results for the half-inhibitory concentration (IC50) at CXCR3 and at human CXCR3A were 0.101 µM and 0.003 µM, respectively.

As for `C[C@@H]1CN(c2sc(C(F)(F)F)nc2-c2nc3ccccc3[nH]2)CCN1C(=O)Cn1cnc2c1CN(C)CC2` [Example 210, 1-{(R)-4-[4-(1H-Benzoimidazol-2-yl)-2-trifluoromethyl-thiazol-5-yl]-2-methyl-piperazin-1-yl}-2-(5-methyl-4,5,6,7-tetrahydro-imidazo[4,5-c]pyridin-3-yl)-ethanone], the 50% inhibitory concentration (IC50) on CXCR3 is 0.121 µM; on human CXCR3A, 0.001 µM.
